Assays:
Assay in all cases: relative viability (nuclei count vs DMSO), 5 days (fraction); higher = more cells survive
[1] = compound: C1=CC(=CC=C1C2=CC(=C(S2)NC(=O)N)C(=O)N)F [TPCA-1] + CC(=O)Nc1cccc(-n2c(=O)n(C3CC3)c(=O)c3c(Nc4ccc(I)cc4F)n(C)c(=O)c(C)c32)c1 [Trametinib] (partner 0.02 µM)
Summary of the method: (§1)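 A single step with final 0.05% Triton X-100, 1% formaldehyde and 1 ug/ml Hoechst fixed the cells and stained nuclei 5 days after treatment. Lung cancer cell lines in 1536-well plates had been treated by pin tool the day after seeding with one drug alone or a fixed anchor-drug dose plus five library-drug doses (not always all listed) in √10 steps, and nuclei were counted on 4× images. Relative viability is the ratio of nuclei in treated wells to nuclei in vehicle wells, taken as the median of duplicate plates.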

[2] = compound: C1/C(=C\C2=CC=CS2)/C(=O)/C(=C/C3=CC=CS3)/C1 + CS(=O)(=O)CCNCc1ccc(-c2ccc3ncnc(Nc4ccc(OCc5cccc(F)c5)c(Cl)c4)c3c2)o1 [Lapatinib] (partner 2 µM)
Summary of the method: as §1

[3] = compound: C1/C(=C\C2=CC=CS2)/C(=O)/C(=C/C3=CC=CS3)/C1 + CS(=O)(=O)N1CCN(Cc2cc3nc(-c4cccc5[nH]ncc45)nc(N4CCOCC4)c3s2)CC1 [Pictilisib] (partner 1 µM)
Summary of the method: as §1

[4] = compound: C1/C(=C\C2=CC=CS2)/C(=O)/C(=C/C3=CC=CS3)/C1 + Cc1nc(Nc2ncc(C(=O)Nc3c(C)cccc3Cl)s2)cc(N2CCN(CCO)CC2)n1 [Dasatinib] (partner 0.075 µM)
Summary of the method: as §1

## UMC-11
[1]; first compound 0.04 µM
  relative viability: 0.648
[1]; first compound 0.1265 µM
  relative viability: 0.612
[1]; first compound 0.4 µM
  relative viability: 0.804
[1]; first compound 1.265 µM
  relative viability: 0.831
[1]; first compound 4 µM
  relative viability: 0.152
[2]; first compound 0.2 µM
  relative viability: 0.88
[2]; first compound 0.6325 µM
  relative viability: 0.98
[2]; first compound 2 µM
  relative viability: 1.19
[2]; first compound 6.325 µM
  relative viability: 0.628
[2]; first compound 20 µM
  relative viability: 1.1
[3]; first compound 0.2 µM
  relative viability: 0.829
[3]; first compound 0.6325 µM
  relative viability: 0.962
[3]; first compound 2 µM
  relative viability: 0.934
[3]; first compound 20 µM
  relative viability: 0.758
[4]; first compound 0.2 µM
  relative viability: 0.555
[4]; first compound 0.6325 µM
  relative viability: 0.507
[4]; first compound 20 µM
  relative viability: 0.472

Reference: the supplement of paper PMC10307832
